From ChEMBL document CHEMBL1201862, “PubChem BioAssay data set” (2004)
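Tested at 5 concentrations; 48 h exposure; 96-well plates; endpoints linearly interpolated, else capped at highest concentration. The concentration for 50% growth inhibition is given as GI50.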 Activity calls are given as the source filed them. No stated cut-off is given here; in the data, active = GI50 up to about 1.1 µM and inactive = higher.

What was measured:
Assay in all cases: NCI anticancer screen, dose series, 48 h
K562 = tested on: K562
SK-OV-3 = tested on: SK-OV-3
HCT-116 = tested on: HCT-116
MDA-MB-231 = tested on: MDA-MB-231
A498 = tested on: A498
786-0 = tested on: 786-0
EKVX = tested on: EKVX
SN12C = tested on: SN12C
HCC 2998 = tested on: HCC 2998
BT-549 = tested on: BT-549
PC-3 = tested on: PC-3
Malme-3M = tested on: Malme-3M
M14 = tested on: M14
CAKI-1 = tested on: CAKI-1
UO-31 = tested on: UO-31
SF-539 = tested on: SF-539
MDA-N = tested on: MDA-N

Measured: GI50

COC1=CC23CCCN2CCc2cc4c(cc2C3C1O)OCO4 (stereo not drawn)
inactive: K562 > 10 µM | SK-OV-3 27 µM | HCT-116 44.5 µM | MDA-MB-231 > 100 µM | A498 59.3 µM | 786-0 44.9 µM | EKVX 52.5 µM | SN12C 57.5 µM | HCC 2998 70.3 µM | BT-549 > 100 µM | PC-3 59.3 µM | Malme-3M 43 µM | M14 > 100 µM | CAKI-1 31.4 µM | UO-31 48 µM | SF-539 40.6 µM

N#Cc1nc(-c2ccsc2)oc1N
inactive: K562 > 100 µM | SK-OV-3 > 100 µM | HCT-116 > 100 µM | MDA-MB-231 > 100 µM | A498 > 100 µM | 786-0 > 100 µM | EKVX > 100 µM | SN12C > 100 µM | PC-3 > 100 µM | MDA-N > 100 µM | M14 > 100 µM | CAKI-1 > 100 µM | UO-31 64.1 µM

C#C[C@@]1(O)CCCC2=CC3(CC[C@]21C)SCCS3
inactive: K562 > 100 µM | SK-OV-3 > 100 µM | HCT-116 > 100 µM | MDA-MB-231 > 100 µM | A498 > 100 µM | 786-0 > 100 µM | EKVX > 100 µM | SN12C > 100 µM | HCC 2998 > 100 µM | PC-3 > 100 µM | MDA-N > 100 µM | Malme-3M > 100 µM | M14 > 100 µM | UO-31 > 100 µM | SF-539 > 100 µM

O=[N+]([O-])c1ccc(N2CCC(CCCC3CCN(c4ccc([N+](=O)[O-])cc4[N+](=O)[O-])CC3)CC2)c([N+](=O)[O-])c1
inactive: K562 22.3 µM | SK-OV-3 18.5 µM | HCT-116 26.5 µM | MDA-MB-231 18.7 µM | A498 17 µM | 786-0 14.5 µM | EKVX 15.8 µM | SN12C 32.1 µM | BT-549 24.4 µM | PC-3 15.8 µM | MDA-N 16.1 µM | Malme-3M 19.1 µM | M14 13.2 µM | CAKI-1 19 µM | UO-31 11.9 µM | SF-539 18.4 µM

CC(CCCC1SCC2NC(=O)NC21)C(=O)O (stereo not drawn)
inactive: K562 > 100 µM | SK-OV-3 > 100 µM | HCT-116 > 100 µM | MDA-MB-231 > 100 µM | A498 > 100 µM | 786-0 > 100 µM | EKVX > 100 µM | SN12C > 100 µM | BT-549 > 100 µM | PC-3 > 100 µM | MDA-N > 100 µM | Malme-3M > 100 µM | M14 > 100 µM | CAKI-1 > 100 µM | UO-31 > 100 µM | SF-539 > 100 µM

COc1ccc(-n2c3c(c4cc(O)ccc42)Cc2ccccc2C3=O)cc1
inactive: K562 31.3 µM | SK-OV-3 16 µM | HCT-116 27.6 µM | MDA-MB-231 20.1 µM | A498 90.6 µM | 786-0 50.2 µM | SN12C 57.3 µM | BT-549 > 100 µM | PC-3 2.2 µM | MDA-N 65.6 µM | Malme-3M > 100 µM | M14 38.2 µM | CAKI-1 30.2 µM | UO-31 > 100 µM | SF-539 34.9 µM

Cc1c2cnccc2nc2[nH]c3ccncc3c12
inactive: K562 10.8 µM | SK-OV-3 21.5 µM | MDA-MB-231 55 µM | A498 5.47 µM | 786-0 3.24 µM | EKVX 16 µM | SN12C 3.33 µM | BT-549 6.92 µM | PC-3 4.56 µM | MDA-N 10.6 µM | Malme-3M 3.33 µM | M14 4.5 µM | CAKI-1 2.98 µM | UO-31 4.08 µM | SF-539 6.73 µM

O=c1[nH]c2cc3cccnc3c(Cl)c2nc1CBr
inactive: K562 12.1 µM | SK-OV-3 26 µM | HCT-116 11.7 µM | MDA-MB-231 15.9 µM | 786-0 6.49 µM | EKVX 16.1 µM | SN12C 14 µM | BT-549 26.5 µM | PC-3 15.7 µM | MDA-N 15.6 µM | Malme-3M 23.1 µM | M14 13.5 µM | CAKI-1 15.1 µM | UO-31 10.5 µM | SF-539 11.2 µM

Cn1c(-c2ccc(/N=N/Nc3ccc(-c4n[nH]c(=S)n4C)cc3)cc2)n[nH]c1=S
inactive: K562 2.82 µM | SK-OV-3 20.2 µM | HCT-116 25.7 µM | MDA-MB-231 18.8 µM | A498 24.9 µM | 786-0 52 µM | EKVX 20.6 µM | SN12C > 100 µM | BT-549 3.9 µM | PC-3 > 100 µM | MDA-N > 100 µM | Malme-3M > 100 µM | M14 8.89 µM | UO-31 2.85 µM

N#Cc1nc(CN2C(=O)c3ccccc3C2=O)oc1N
inactive: K562 > 100 µM | SK-OV-3 > 100 µM | HCT-116 > 100 µM | MDA-MB-231 > 100 µM | A498 > 100 µM | 786-0 > 100 µM | SN12C > 100 µM | HCC 2998 > 100 µM | PC-3 > 100 µM | MDA-N > 100 µM | Malme-3M > 100 µM | M14 > 100 µM | CAKI-1 > 100 µM | SF-539 > 100 µM

Clc1cc(-c2ccccc2)nc2ccccc12
inactive: K562 37.8 µM | SK-OV-3 > 100 µM | HCT-116 32.5 µM | MDA-MB-231 35.4 µM | A498 33 µM | 786-0 39.5 µM | EKVX 31.9 µM | SN12C 41.1 µM | BT-549 18.8 µM | PC-3 24.8 µM | MDA-N 26 µM | Malme-3M 38 µM | M14 37.6 µM | CAKI-1 33.9 µM | UO-31 32.9 µM | SF-539 51.4 µM

NS(=O)(=O)c1nnc(NS(=O)(=O)c2ccccc2C(=O)O)s1
inactive: K562 40.7 µM | SK-OV-3 > 100 µM | HCT-116 > 100 µM | MDA-MB-231 > 100 µM | A498 > 100 µM | 786-0 > 100 µM | EKVX > 100 µM | SN12C > 100 µM | HCC 2998 > 100 µM | BT-549 > 100 µM | MDA-N > 100 µM | Malme-3M > 100 µM | M14 > 100 µM | CAKI-1 > 100 µM | UO-31 > 100 µM

N=C(N)NCCCC(NC(=O)c1cccc2c(=O)c3ccccc3[nH]c12)C(=O)O (stereo not drawn)
inactive: K562 > 100 µM | SK-OV-3 > 100 µM | HCT-116 > 100 µM | MDA-MB-231 > 100 µM | A498 > 100 µM | 786-0 > 100 µM | EKVX > 100 µM | SN12C > 100 µM | PC-3 > 100 µM | MDA-N > 100 µM | Malme-3M > 100 µM | M14 > 100 µM | UO-31 > 100 µM
